Test results reported in article PMC10922308 (Cell chemical biology, 2023).
Each block holds one compound with its values, some of them ahead of it.

Experiments:
Assay type in all cases: cell-based
[1] = molecular target: T1, PIM1 (Homo sapiens, UniProt P11309); test: PROTAC degradation immunoblot in PC3-dox-PIM1 cells
[2] = molecular target: T1, PIM1
[3] = molecular target: T1, PIM1; test: PROTAC degradation immunoblot in PC3-dox-PIM1 cells; remark: listed apart in the source
[4] = molecular target: PIM3 (Homo sapiens, UniProt Q86V86); test: PROTAC degradation immunoblot in PC3 cells
[5] = molecular target: PIM2 (Homo sapiens, UniProt Q9P1W9); test: PROTAC degradation immunoblot in PC3 cells
Chain of PIM2 (Q9P1W9 whole entry): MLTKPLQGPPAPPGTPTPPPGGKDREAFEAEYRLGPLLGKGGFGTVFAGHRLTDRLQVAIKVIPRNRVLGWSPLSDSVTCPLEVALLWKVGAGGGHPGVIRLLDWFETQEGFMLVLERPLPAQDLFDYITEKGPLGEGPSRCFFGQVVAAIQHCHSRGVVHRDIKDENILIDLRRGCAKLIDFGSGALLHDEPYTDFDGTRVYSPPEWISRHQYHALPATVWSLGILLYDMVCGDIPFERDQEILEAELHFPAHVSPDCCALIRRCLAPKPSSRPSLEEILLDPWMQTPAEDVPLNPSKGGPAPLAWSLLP
Chain of PIM2 (P40337 whole entry partner): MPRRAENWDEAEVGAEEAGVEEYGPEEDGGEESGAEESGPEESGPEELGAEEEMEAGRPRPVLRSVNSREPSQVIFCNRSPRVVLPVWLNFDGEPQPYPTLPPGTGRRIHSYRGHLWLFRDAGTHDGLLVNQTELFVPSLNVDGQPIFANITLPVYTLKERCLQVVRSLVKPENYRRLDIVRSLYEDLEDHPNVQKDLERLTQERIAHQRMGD

T1 sequence (P11309 whole entry): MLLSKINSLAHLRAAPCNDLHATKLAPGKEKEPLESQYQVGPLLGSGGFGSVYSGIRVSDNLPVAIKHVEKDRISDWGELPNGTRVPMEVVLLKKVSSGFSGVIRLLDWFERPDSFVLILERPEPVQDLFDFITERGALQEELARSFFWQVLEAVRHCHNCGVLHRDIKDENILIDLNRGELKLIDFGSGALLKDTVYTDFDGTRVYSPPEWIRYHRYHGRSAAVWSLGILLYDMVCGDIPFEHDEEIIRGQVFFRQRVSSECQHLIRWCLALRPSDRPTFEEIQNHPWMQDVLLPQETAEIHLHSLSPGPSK
T1 sequence (P40337 whole entry partner): as the sequence (P40337 whole entry partner) above
Chain of PIM3 (P40337 whole entry partner): as the sequence (P40337 whole entry partner) above

PROTAC degradation immunoblot in PC3-dox-PIM1 cells [1]: 6.25 µM
Compound: Cc1ncsc1-c1ccc([C@H](C)NC(=O)[C@@H]2C[C@@H](O)CN2C(=O)[C@@H](NC(=O)CCCCCCC(=O)N[C@H]2CCCN(c3c(/C=C4\SC(=O)NC4=O)cccc3-c3ccccc3)C2)C(C)(C)C)cc1 [AZD1208-VHL-01, N^1-((S)-1-(3-((Z)-(2,4-dioxothiazolidin-5-ylidene)methyl)-[1,1’-biphenyl]-2-yl)piperidin-3-yl)-N^8-((S)-1-((2S,4R)-4-hydroxy-2-(((S)-1-(4-(4-methylthiazol-5-yl)phenyl)ethyl)carbamoyl)pyrrolidin-1-yl)-3,3-dimethyl-1-oxobutan-2-yl)octanediamide]

PROTAC degradation immunoblot in PC3 cells, with VH298, MG-132, MLN4924, cis-epi [2]: 0.75 µM
Compound: Cc1ncsc1-c1ccc([C@H](C)NC(=O)[C@@H]2C[C@@H](O)CN2C(=O)[C@@H](NC(=O)CCCCCCC(=O)N[C@@H]2CC(c3ccncc3NC(=O)c3ccc(F)c(-c4c(F)cccc4F)n3)C[C@H](C)C2)C(C)(C)C)cc1 (stereo partly drawn) [PIM447-VHL-01, N^1-((1S,5S)-3-(3-(6-(2,6-difluorophenyl)-5-fluoropicolinamido)pyridin-4-yl)-5-methylcyclohexyl)-N^8-((S)-1-((2S,4R)-4-hydroxy-2-(((S)-1-(4-(4-methylthiazol-5-yl)phenyl)ethyl)carbamoyl)pyrrolidin-1-yl)-3,3-dimethyl-1-oxobutan-2-yl)octanediamide]

PROTAC degradation immunoblot in PC3-dox-PIM1 cells (hook effect seen) [3]: 0.75 µM
Compound: Cc1ncsc1-c1ccc([C@H](C)NC(=O)[C@@H]2C[C@@H](O)CN2C(=O)[C@@H](NC(=O)CCOCCOCCN2CCC(CNc3ccc4ncc(-c5cccc(OC(F)(F)F)c5)n4n3)CC2)C(C)(C)C)cc1 [SGI-1776-VHL-01, (2S,4R)-1-((S)-3,3-dimethyl-2-(3-(2-(2-(4-(((3-(3-(trifluoromethoxy)phenyl)imidazo[1,2-b]pyridazin-6-yl)amino)methyl)piperidin-1-yl)ethoxy)ethoxy)propanamido)butanoyl)-4-hydroxy-N-((S)-1-(4-(4-methylthiazol-5-yl)phenyl)ethyl)pyrrolidine-2-carboxamide]

PROTAC degradation immunoblot in PC3 cells, with VH298, MG-132, MLN4924, cis-epi [2]: 0.75 µM
PROTAC degradation immunoblot in PC3 cells [4]: 1.5 µM
PROTAC degradation immunoblot in PC3 cells [5]: 3.75 µM
Compound: Cc1ncsc1-c1ccc([C@H](C)NC(=O)[C@@H]2C[C@@H](O)CN2C(=O)[C@@H](NC(=O)CCCCCCC(=O)N2CCC(CNc3ccc4ncc(-c5cccc(OC(F)(F)F)c5)n4n3)CC2)C(C)(C)C)cc1 [SGI-1776-VHL-02, (2S,4R)-1-((S)-3,3-dimethyl-2-(8-oxo-8-(4-(((3-(3-(trifluoromethoxy)phenyl)imidazo[1,2-b]pyridazin-6-yl)amino)methyl)piperidin-1-yl)octanamido)butanoyl)-4-hydroxy-N-((S)-1-(4-(4-methylthiazol-5-yl)phenyl)ethyl)pyrrolidine-2-carboxamide]
